The values below come from patent US20200181104A1, “SSAO INHIBITORS AND USES THEREOF” (METACRINE, INC., priority 2018, published 2020).

Counter-ions that a name gives are not always drawn.

This assay concerns the target T1, Recombinant Human SSAO/VAP-1/AOC3 (Homo sapiens, UniProt Q16853).
T1 construct: purchased R&D systems 3957-AO
T1 sequence (Q16853 1-763): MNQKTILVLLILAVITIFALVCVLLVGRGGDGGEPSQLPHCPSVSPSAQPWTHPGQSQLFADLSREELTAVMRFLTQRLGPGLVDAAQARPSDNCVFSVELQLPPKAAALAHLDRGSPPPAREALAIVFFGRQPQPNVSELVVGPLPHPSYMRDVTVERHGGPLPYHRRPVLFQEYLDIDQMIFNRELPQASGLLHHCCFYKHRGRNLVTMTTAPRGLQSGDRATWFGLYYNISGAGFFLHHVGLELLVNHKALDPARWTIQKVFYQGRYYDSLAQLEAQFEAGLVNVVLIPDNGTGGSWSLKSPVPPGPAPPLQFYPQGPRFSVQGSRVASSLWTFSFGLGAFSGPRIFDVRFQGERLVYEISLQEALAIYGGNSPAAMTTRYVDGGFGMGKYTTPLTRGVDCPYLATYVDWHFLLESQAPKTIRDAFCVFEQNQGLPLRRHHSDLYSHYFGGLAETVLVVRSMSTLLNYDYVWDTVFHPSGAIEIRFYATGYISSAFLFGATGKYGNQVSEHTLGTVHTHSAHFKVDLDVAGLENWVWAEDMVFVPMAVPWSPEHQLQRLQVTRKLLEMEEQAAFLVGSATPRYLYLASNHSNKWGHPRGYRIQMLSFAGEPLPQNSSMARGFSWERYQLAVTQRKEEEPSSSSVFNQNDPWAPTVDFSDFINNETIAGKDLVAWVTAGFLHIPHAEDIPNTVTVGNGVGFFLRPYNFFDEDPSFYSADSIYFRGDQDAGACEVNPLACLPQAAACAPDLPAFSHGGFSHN
The experiment in a line: Human Semicarbazide-Sensitive Amine Oxidase (SSAO) Assay. As to conditions: recombinant enzyme, 30 minutes preincubation at 37° C., benzylamine substrate, Amplex Ultra Red/HRP fluorescence. The format is biochemical. In short, it runs like this: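 IC50 from kinetic Amplex Ultra Red/HRP fluorescence (ex 544, em 590 nm, 30-120 min) after benzylamine addition. Beforehand, 6-10 compound dilutions were preincubated 30 min at 37 °C with recombinant human SSAO in 50 mM HEPES (enzyme working concentration 2.5 μg/ml).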
Consider `NC/C(=C\F)COc1ccc(C23CCC(C(=O)NC4CCC(F)(F)CC4)(CC2)CC3)cc1` [Compound 2.46, (E)-4-(4-((2-(aminomethyl)-3-fluoroallyl)oxy)phenyl)-N-(4,4-difluorocyclohexyl)bicyclo [2.2.2]octane-1-carboxamide], for which the half-maximal inhibitory concentration (IC50) (commonly the concentration that gives 50% inhibition) is not above 10 nM.

For `NC/C(=C\F)COc1ccc(C23CCC(C(=O)NC4[C@H]5COC[C@H]45)(CC2)CC3)cc1` (stereo in doubt) [Compound 2.66, 4-(4-(((E)-2-(aminomethyl)-3-fluoroallyl)oxy)phenyl)-N-((1R,5S,6s)-3-oxabicyclo[3.1.0]hexan-6-yl)bicyclo[2.2.2]octane-1-carboxamide], the IC50 was not above 10 nM. Next, `CO[C@H](C)CNC(=O)C12CCC(c3ccc(OC/C(=C/F)CN)cc3)(CC1)CC2` [Compound 2.123, (R,E)-4-(4-((2-(aminomethyl)-3-3-fluoroallyl)oxy)phenyl)-N-(2-methoxypropyl)bicyclo[2.2.2] octane-1-carboxamide]: not above 10 nM.

On to `NC/C(=C\F)COc1ccc(C23CCC(C(=O)NC4(CO)CC4)(CC2)CC3)cc1` [Compound 2.73, (E)-4-(4-((2-(aminomethyl)-3-fluoroallyl)oxy)phenyl)-N-(1-(hydroxymethyl)cyclopropyl) bicyclo[2.2.2]octane-1-carboxamide], for which the IC50 is not above 10 nM. In the case of `NC/C(=C\F)COc1ccc(C23CCC(C(=O)NC4CCN(CC(F)(F)F)CC4)(CC2)CC3)cc1` [Compound 2.112, (E)-4-(4-((2-(aminomethyl)-3-fluoroallyl)oxy)phenyl)-N-(1-(2,2,2-trifluoroethyl)piperidin-4-yl)bicyclo[2.2.2]octane-1-carboxamide] it was not above 10 nM; in that of `NC/C(=C\F)COc1ccc(C23CCC(C(=O)NC4CCC5(CC4)COC5)(CC2)CC3)cc1` [Compound 2.106, (E)-4-(4-((2-(aminomethyl)-3-fluoroallyl)oxy)phenyl)-N-(2-oxaspiro[3.5]nonan-7-yl)bicyclo[2.2.2]octane-1-carboxamide], not above 10 nM; in that of `CNC(=O)C12CCCC(c3ccc(OC/C(=C/F)CN)cc3)(CC1)C2` (stereo not drawn) [Compound 5, 5-(4-(((E)-2-(Aminomethyl)-3-fluoroallyl)oxy)phenyl)-N-methylbicyclo[3.2.1]octane-1-carboxamide Hydrochloride], not above 10 nM. With `CC1(NC(=O)C23CCC(c4ccc(OC/C(=C/F)CN)cc4)(CC2)CC3)CCOC1` (stereo not drawn) [Compound 2.87, (E)-4-(4-((2-(aminomethyl)-3-fluoroallyl)oxy)phenyl)-N-(3-methyltetrahydrofuran-3-yl)bicyclo[2.2.2]octane-1-carboxamide], the IC50 was not above 10 nM.

Turning to `COC1(CNC(=O)C23CCC(c4ccc(OC/C(=C/F)CN)cc4)(CC2)CC3)CCCCC1` [Compound 2.102, (E)-4-(4-((2-(aminomethyl)-3-fluoroallyl)oxy)phenyl)-N-((1-methoxycyclohexyl)methyl) bicyclo[2.2.2]octane-1-carboxamide], the concentration for half-maximal inhibition (IC50) lay within 10 to 100 nM. In the case of `CNC(=O)[C@H]1C2CC3CC1C[C@](c1ccc(OC/C(=C/F)CN)cc1)(C3)C2` (single isomer, unassigned) [Compound 6.01, syn-5-(4-(((E)-2-(Aminomethyl)-3-fluoroallyl)oxy)phenyl)-N-methyladamantane-2-carboxamide Hydrochloride], the IC50 was not above 10 nM. In the case of `COC1(CNC(=O)C23CCC(c4ccc(OC/C(=C/F)CN)cc4)(CC2)CC3)CCC1` [Compound 2.92, (E)-4-(4-((2-(aminomethyl)-3-fluoroallyl)oxy)phenyl)-N-((1-methoxycyclobutyl)methyl) bicyclo[2.2.2]octane-1-carboxamide] it was not above 10 nM; in that of `CNC(=O)C12CCC(c3ccc(OC/C(=C/F)CN)c(C)c3)(CC1)CC2` [Compound 2, (E)-4-(4-((2-(aminomethyl)-3-fluoroallyl)oxy)-3-methylphenyl)-N-methylbicyclo[2.2.2]octane-1-carboxamide], not above 10 nM; in that of `CC(C)(O)CCNC(=O)C12CCC(c3ccc(OC/C(=C/F)CN)cc3)(CC1)CC2` [Compound 2.89, (E)-4-(4-((2-(aminomethyl)-3-fluoroallyl)oxy)phenyl)-N-(3-hydroxy-3-methylbutyl)bicyclo[2.2.2] octane-1-carboxamide], not above 10 nM. Next, `CC1(C)CC(NC(=O)C23CCC(c4ccc(OC/C(=C/F)CN)cc4)(CC2)CC3)C1` [Compound 2.136, (E)-4-(4-((2-(aminomethyl)-3-fluoroallyl)oxy)phenyl)-N-(3,3-dimethylcyclobutyl)bicyclo [2.2.2]octane-1-carboxamide]: not above 10 nM; `NC/C(=C\F)COc1ccc(C23CCC(C(=O)N4CC5(CCOCC5)C4)(CC2)CC3)cc1` [Compound 2.82, (E)-(4-(4-((2-(Aminomethyl)-3-fluoroallyl)oxy)phenyl)bicyclo[2.2.2]octan-1-yl)(7-oxa-2-azaspiro[3.5]nonan-2-yl)methanone Hydrochloride]: not above 10 nM; `NC/C(=C\F)COc1ccc(C23CCC(C(=O)NC4CC5(CCOCC5)C4)(CC2)CC3)cc1` [Compound 2.114, (E)-4-(4-((2-(aminomethyl)-3-fluoroallyl)oxy)phenyl)-N-(7-oxaspiro[3.5]nonan-2-yl)bicyclo[2.2.2]octane-1-carboxamide]: not above 10 nM. For `NC/C(=C\F)COc1ccc(C23CCC(c4nnc(C5CCOCC5)o4)(CC2)CC3)cc1` [Compound 11.02, (E)-3-fluoro-2-((4-(4-(5-(tetrahydro-2H-pyran-4-yl)-1,3,4-oxadiazol-2-yl)bicyclo[2.2.2]octan-1-yl)phenoxy)methyl)prop-2-en-1-amine], the IC50 is not above 10 nM. Next, `COc1cnc(CNC(=O)C23CCC(c4ccc(OC/C(=C/F)CN)cc4)(CC2)CC3)cn1` [Compound 2.160, (E)-4-(4-((2-(aminomethyl)-3-fluoroallyl)oxy)phenyl)-N-((5-methoxypyrazin-2-yl)methyl)bicyclo[2.2.2]octane-1-carboxamide]: not above 10 nM. Next, `NC/C(=C\F)COc1ccc(C23CCC(C(=O)N4C5CCC4COC5)(CC2)CC3)cc1` [Compound 2.67, (E)-(4-(4-((2-(aminomethyl)-3-fluoroallyl)oxy)phenyl)bicyclo [2.2.2]octan-1-yl)(3-oxa-8-azabicyclo[3.2.1]octan-8-yl)methanone]: not above 10 nM; `NC/C(=C\F)COc1ccc(C2(C(N)=O)CCCCC2)cc1` [Compound 1, (E)-1-(4-((2-(Aminomethyl)-3-fluoroallyl)oxy)phenyl)cyclohexanecarboxamide Hydrochloride]: not above 10 nM. For `CNC(=O)C1(c2ccc(OC/C(=C/F)CN)cc2)CCCCC1` [Compound 1.01, (E)-1-(4-((2-(Aminomethyl)-3-fluoroallyl)oxy)phenyl)-N-methylcyclohexanecarboxamide], the IC50 is 10 to 100 nM. As to `NC/C(=C\F)COc1ccc(C23CCC(C(=O)N4CCCC4)(CC2)CC3)cc1` [Compound 2.25, (E)-(4-(4-((2-(aminomethyl)-3-fluoroallyl)oxy)phenyl)bicyclo [2.2.2]octan-1-yl)(pyrrolidin-1-yl)methanone], the IC50 is not above 10 nM. Consider `NC/C(=C\F)COc1ccc(C23CCC(C(=O)N4CCC(OCCO)CC4)(CC2)CC3)cc1` [Compound 2.85, (E)-(4-(4-((2-(aminomethyl)-3-fluoroallyl)oxy)phenyl)bicyclo [2.2.2]octan-1-yl)(4-(2-hydroxyethoxy)piperidin-1-yl)methanone], for which the concentration for half-maximal inhibition (IC50) was not above 10 nM. For the molecule `CC(C)(CO)CNC(=O)C12CCC(c3ccc(OC/C(=C/F)CN)cc3)(CC1)CC2` [Compound 2.77, (E)-4-(4-((2-(aminomethyl)-3-fluoroallyl)oxy)phenyl)-N-(3-hydroxy-2,2-dimethylpropyl)bicyclo[2.2.2] octane-1-carboxamide], the half-inhibitory concentration (IC50) is not above 10 nM. On to `COCC(C)(C)CNC(=O)C12CCC(c3ccc(OC/C(=C/F)CN)cc3)(CC1)CC2` [Compound 2.132, (E)-4-(4-((2-(aminomethyl)-3-fluoroallyl)oxy)phenyl)-N-(3-methoxy-2,2-dimethylpropyl)bicyclo[2.2.2] octane-1-carboxamide], for which the IC50 is not above 10 nM. In the case of `COc1cccc(CCNC(=O)C23CCC(c4ccc(OC/C(=C/F)CN)cc4)(CC2)CC3)c1` [Compound 2.119, (E)-4-(4-((2-(aminomethyl)-3-fluoroallyl)oxy)phenyl)-N-(3-methoxyphenethyl)bicyclo [2.2.2]octane-1-carboxamide], the IC50 was not above 10 nM.

Take `NC/C(=C\F)COc1ccc(C23CCC(C(=O)NC4(c5ccccc5)CCOCC4)(CC2)CC3)cc1` [Compound 2.69, (E)-4-(4-((2-(aminomethyl)-3-fluoroallyl)oxy)phenyl)-N-(4-phenyltetrahydro-2H-pyran-4-yl)bicyclo[2.2.2]octane-1-carboxamide]: the IC50 is not above 10 nM.
